Source: US20110295343A1, “NEAR-INFRARED ELECTROMAGNETIC MODIFICATION OF CELLULAR STEADY-STATE MEMBRANE POTENTIALS” (priority 2008, published 2011)
“And” between values parts separate entries of the source, which are not always exact repeats. Equal entries are not always repeated.

Test system: MRSA (ATCC BAA-43)
Test: MRSA/antimicrobial potentiation, CFU on TSB agar with and without antibiotic after laser (Example XXII, Experiments 1-4)
Assay type: cell-based, Staphylococcus aureus subsp. aureus
Details: for CFU/ml / AVG / CFU: agar with 30 μg/ml methicillin; for AVG: mean of plates; for CFU: replicate plates; for Meth Effect: CFU with methicillin / without; for Laser Effect (+Meth) / Laser Effect (+M): both on 30 μg/ml methicillin
Experimental: Four separate experiments have been performed.
Eight different laser dosages were used to treat a saline-suspension of logarithmically growing MRSA, labeled A1 to H1.
The treated and a control untreated suspension were diluted and plated in triplicate on trypic soy agar with or without 30 μg/ml methicillin After 24 hrs of growth at 37° C. colonies were counted.
CFU (colony forming units) were compared between the plates with and without methicillin for both control (untreated) and treated MRSA.
The treated and a control untreated suspension were diluted and plated in triplicate on trypic soy agar with or without 30 μg/mlmethicillin.
After 24 hrs of growth at 37° C. colonies were counted.
The treated and a control untreated suspension were diluted and plated in pentuplicate on trypic soy agar with or without 30 μg/ml methicillin.

In the case of `COc1cccc(OC)c1C(=O)N[C@@H]1C(=O)N2[C@@H]1SC(C)(C)[C@@H]2C(=O)O` [Methicillin], the CFU/ml (Exp#2 C2 Cont (no laser)) is reported as 1.66E+08 CFU/ml, the AVG (Exp#2 C2 Cont (no laser)) is reported as 55.3 CFU and the CFU (Exp#2 C2 Cont (no laser)) is reported as 42 CFU and 71 CFU and 53 CFU. The “Meth Effect” value (Exp#2 C2 Exp (laser treated)) was 0.31, the CFU/ml (Exp#2 C2 Exp (laser treated)) was 3.80E+07 CFU/ml and the AVG (Exp#2 C2 Exp (laser treated)) was 12.7 CFU. For the same compound, the CFU (Exp#2 C2 Exp (laser treated)) was 16 CFU and 12 CFU and 10 CFU, the “Laser Effect (+Meth)” value (Exp#2 D2, laser Exp / Cont) was 0.04 and the “Meth Effect” value (Exp#2 D2 Cont (no laser)) was 0.61. For the same compound, the CFU/ml (Exp#2 D2 Cont (no laser)) was 1.56E+08 CFU/ml, the AVG (Exp#2 D2 Cont (no laser)) was 52 CFU and the CFU (Exp#2 D2 Cont (no laser)) was 20 CFU and 65 CFU and 71 CFU. The “Meth Effect” value (Exp#2 D2 Exp (laser treated)) was 0.25, the CFU/ml (Exp#2 D2 Exp (laser treated)) was 7.00E+06 CFU/ml and the AVG (Exp#2 D2 Exp (laser treated)) was 2.3 CFU. The CFU (Exp#2 D2 Exp (laser treated)) was 5 CFU and 1 CFU (2×), the “Laser Effect (+Meth)” value (Exp#2 E2, laser Exp / Cont) was 0.04 and the “Meth Effect” value (Exp#2 E2 Cont (no laser)) was 1.04. For the same compound, the CFU/ml (Exp#2 E2 Cont (no laser)) was 1.87E+08 CFU/ml, the AVG (Exp#2 E2 Cont (no laser)) was 62.3 CFU and the CFU (Exp#2 E2 Cont (no laser)) was 68 CFU and 66 CFU and 53 CFU. For the same compound, the “Meth Effect” value (Exp#2 E2 Exp (laser treated)) was 0.24, the CFU/ml (Exp#2 E2 Exp (laser treated)) was 8.00E+06 CFU/ml and the AVG (Exp#2 E2 Exp (laser treated)) was 2.7 CFU. The CFU (Exp#2 E2 Exp (laser treated)) was 2 CFU (2×) and 4 CFU, the “Laser Effect (+Meth)” value (Exp#2 F2, laser Exp / Cont) was 0.22 and the “Meth Effect” value (Exp#2 F2 Cont (no laser)) was 0.81. For the same compound, the CFU/ml (Exp#2 F2 Cont (no laser)) was 2.13E+08 CFU/ml, the AVG (Exp#2 F2 Cont (no laser)) was 71 CFU and the CFU (Exp#2 F2 Cont (no laser)) was 62 CFU and 64 CFU and 87 CFU. For the same compound, the “Meth Effect” value (Exp#2 F2 Exp (laser treated)) was 0.38, the CFU/ml (Exp#2 F2 Exp (laser treated)) was 4.70E+07 CFU/ml and the AVG (Exp#2 F2 Exp (laser treated)) was 15.7 CFU. For the same compound, the CFU (Exp#2 F2 Exp (laser treated)) was 13 CFU and 15 CFU and 19 CFU, the “Laser Effect (+Meth)” value (Exp#2 G2, laser Exp / Cont) was 0.1 and the “Meth Effect” value (Exp#2 G2 Cont (no laser)) was 1.04. The CFU/ml (Exp#2 G2 Cont (no laser)) was 2.50E+08 CFU/ml, the AVG (Exp#2 G2 Cont (no laser)) was 83.3 CFU and the CFU (Exp#2 G2 Cont (no laser)) was 75 CFU and 92 CFU and 83 CFU. The “Meth Effect” value (Exp#2 G2 Exp (laser treated)) was 0.3, the CFU/ml (Exp#2 G2 Exp (laser treated)) was 2.50E+07 CFU/ml and the AVG (Exp#2 G2 Exp (laser treated)) was 8.3 CFU. For the same compound, the CFU (Exp#2 G2 Exp (laser treated)) was 10 CFU and 7 CFU and 8 CFU, the “Laser Effect (+Meth)” value (Exp#2 H2, laser Exp / Cont) was 0.17 and the “Meth Effect” value (Exp#2 H2 Cont (no laser)) was 0.73. For the same compound, the CFU/ml (Exp#2 H2 Cont (no laser)) was 2.30E+08 CFU/ml, the AVG (Exp#2 H2 Cont (no laser)) was 76.7 CFU and the CFU (Exp#2 H2 Cont (no laser)) was 76 CFU and 72 CFU and 82 CFU. The “Meth Effect” value (Exp#2 H2 Exp (laser treated)) was 0.45, the CFU/ml (Exp#2 H2 Exp (laser treated)) was 3.80E+07 CFU/ml and the AVG (Exp#2 H2 Exp (laser treated)) was 12.7 CFU. The CFU (Exp#2 H2 Exp (laser treated)) was 13 CFU (2×) and 12 CFU, the “Laser Effect (+M)” value (Exp#3 A3, laser Exp / Cont) was 0.33 and the “Meth Effect” value (Exp#3 A3 Cont (no laser)) was 1.03. The CFU/ml (Exp#3 A3 Cont (no laser)) was 1.45E+08 CFU/ml, the AVG (Exp#3 A3 Cont (no laser)) was 48.4 CFU and the “Meth Effect” value (Exp#3 A3 Exp (laser treated)) was 0.52. For the same compound, the CFU/ml (Exp#3 A3 Exp (laser treated)) was 4.86E+07 CFU/ml, the AVG (Exp#3 A3 Exp (laser treated)) was 16.2 CFU and the “Laser Effect (+M)” value (Exp#3 B3, laser Exp / Cont) was 0.27. The “Meth Effect” value (Exp#3 B3 Cont (no laser)) was 0.99, the CFU/ml (Exp#3 B3 Cont (no laser)) was 2.14E+08 CFU/ml and the AVG (Exp#3 B3 Cont (no laser)) was 71.4 CFU. For the same compound, the “Meth Effect” value (Exp#3 B3 Exp (laser treated)) was 0.61, the CFU/ml (Exp#3 B3 Exp (laser treated)) was 5.70E+07 CFU/ml and the AVG (Exp#3 B3 Exp (laser treated)) was 19 CFU. The “Laser Effect (+M)” value (Exp#3 C3, laser Exp / Cont) was 0.35, the “Meth Effect” value (Exp#3 C3 Cont (no laser)) was 1.01 and the CFU/ml (Exp#3 C3 Cont (no laser)) was 1.75E+08 CFU/ml. For the same compound, the AVG (Exp#3 C3 Cont (no laser)) was 58.4 CFU, the “Meth Effect” value (Exp#3 C3 Exp (laser treated)) was 0.53 and the CFU/ml (Exp#3 C3 Exp (laser treated)) was 6.06E+07 CFU/ml. For the same compound, the AVG (Exp#3 C3 Exp (laser treated)) was 20.2 CFU, the “Laser Effect (+M)” value (Exp#3 D3, laser Exp / Cont) was 0.07 and the “Meth Effect” value (Exp#3 D3 Cont (no laser)) was 1.01. The CFU/ml (Exp#3 D3 Cont (no laser)) was 1.54E+08 CFU/ml, the AVG (Exp#3 D3 Cont (no laser)) was 51.2 CFU and the “Meth Effect” value (Exp#3 D3 Exp (laser treated)) was 0.39. For the same compound, the CFU/ml (Exp#3 D3 Exp (laser treated)) was 1.08E+07 CFU/ml, the AVG (Exp#3 D3 Exp (laser treated)) was 3.6 CFU and the “Laser Effect (+M)” value (Exp#3 E3, laser Exp / Cont) was 0.47. For the same compound, the “Meth Effect” value (Exp#3 E3 Cont (no laser)) was 0.92, the CFU/ml (Exp#3 E3 Cont (no laser)) was 1.52E+08 CFU/ml and the AVG (Exp#3 E3 Cont (no laser)) was 50.6 CFU. The “Meth Effect” value (Exp#3 E3 Exp (laser treated)) was 0.44, the CFU/ml (Exp#3 E3 Exp (laser treated)) was 7.08E+07 CFU/ml and the AVG (Exp#3 E3 Exp (laser treated)) was 23.6 CFU. The CFU (Exp#3 E3 Exp (laser treated)) was 15 CFU and 24 CFU and 26 CFU and 27 CFU, the “Laser Effect (+M)” value (Exp#3 F3, laser Exp / Cont) was 0.18 and the “Meth Effect” value (Exp#3 F3 Cont (no laser)) was 0.73. For the same compound, the CFU/ml (Exp#3 F3 Cont (no laser)) was 1.60E+08 CFU/ml, the AVG (Exp#3 F3 Cont (no laser)) was 53.2 CFU and the “Meth Effect” value (Exp#3 F3 Exp (laser treated)) was 0.35. The CFU/ml (Exp#3 F3 Exp (laser treated)) was 2.94E+07 CFU/ml, the AVG (Exp#3 F3 Exp (laser treated)) was 9.8 CFU and the “Laser Effect (+M)” value (Exp#3 G3, laser Exp / Cont) was 0.12. For the same compound, the “Meth Effect” value (Exp#3 G3 Cont (no laser)) was 1.17, the CFU/ml (Exp#3 G3 Cont (no laser)) was 2.03E+08 CFU/ml and the AVG (Exp#3 G3 Cont (no laser)) was 67.6 CFU. For the same compound, the “Meth Effect” value (Exp#3 G3 Exp (laser treated)) was 0.37, the CFU/ml (Exp#3 G3 Exp (laser treated)) was 2.52E+07 CFU/ml and the AVG (Exp#3 G3 Exp (laser treated)) was 8.4 CFU. For the same compound, the “Laser Effect (+M)” value (Exp#3 H3, laser Exp / Cont) was 0.11, the “Meth Effect” value (Exp#3 H3 Cont (no laser)) was 1.04 and the CFU/ml (Exp#3 H3 Cont (no laser)) was 2.26E+08 CFU/ml. The AVG (Exp#3 H3 Cont (no laser)) was 75.2 CFU, the “Meth Effect” value (Exp#3 H3 Exp (laser treated)) was 0.35 and the CFU/ml (Exp#3 H3 Exp (laser treated)) was 2.52E+07 CFU/ml. The AVG (Exp#3 H3 Exp (laser treated)) was 8.4 CFU and the “synergistic effect of NIMELS with antibiotic in growth inhibition of MRSA colonies” value (FIG. 17) was “being potentiated by sub-lethal NIMELS dosimetry”.
